The values below come from US8685371B2, “Agents for detecting and imaging cell death” (Cambridge Enterprise Limited, priority 2008, dated 2014).

Several values for one entry are separate records, joined by “and”; a condition that tells them apart may be missing. Equal entries are not always repeated. Where two headings read alike, the source gives them in different places.

What all share (assay): Surface plasmon resonance (SPR) binding to phosphatidylserine-coated L1 chip
Background: In SPR one partner is held on a chip, and binding of the other changes the refractive index at the surface.

The target of experiment [1] is T1, C2Am-AlxAF647: Rattus norvegicus synaptotagmin I C2A domain variant C2Am, S78C (S217C of full-length synaptotagmin I), SEQ ID NO: 1, labelled at cysteine-78 wit (Rattus norvegicus, UniProt P21707, S217C).
T1 construct: GST (N, cleaved yes); linker between GST and C2A (part after the thrombin site) (N); made in house; host or cells: E. coli BL21
To be noted: 37° C., 2 mM CaCl2, pH 7.4. The source says: (§1) The Rattus norvegicus synaptotagmin sequence was acquired using the NCBI Genbank service (sequence identity NM_001033680; NM_001033680.2) and the C2A domain was selected from this sequence. Three candidate cysteine mutants were selected at: Ser217, Gln154, Asn248 (see FIG. 2). Appropriate primers for mutagenesis were designed with the use of Quikchange Primer Design software. The C2A-containing pGEX-2T vector (GE Healthcare, Chalfont St Giles, UK) was isolated from BL21 E. coli cells and underwent a double restriction digest to confirm its identity. Mutagenesis was performed by the Stratagene QuikChange Site-Directed Mutagenesis kit. E. coli DH5α competent cells were transformed with the mutant plasmid by heat shock and the amplified vector then isolated and sequenced. Finally, E. coli BL21 cells were transformed with the vector by electroporation.
(§2) S217C (position 78 of the C2A domain; position 217 of full-length Synaptotagmin I) mutant was selected as the best expressed site-directed mutant of C2A (C2Am).
The mutant protein (C2Am) was covalently labeled with the fluorochrome Alexa Fluor 647 (AlxAF647), via a reaction between the cysteine-78 residue with the maleimide group of Alexa Fluor 647 C2 maleimide (Invitrogen). Briefly, the protein was reduced using 10 mM DTT for half an hour at room temperature. The protein was then washed in a 5-KDa vivaspin concentrator (Sartorius, Epsom, UK) in HNE buffer (20 mM HEPES, 100 mM NaCl, 5 mM EDTA, pH 7.4). This removed any residual DTT, which interferes with the conjugation reaction. The protein was kept at a concentration in the range 50-100 μM, and approximately a 10-fold molar excess of the fluorescent maleimide dye was added. The reaction was allowed to proceed on a magnetic stirrer at 4° C. overnight. Gel filtration was used to separate the modified protein from unreacted dye. Electrospray ionisation (ESI) mass spectrometry was used to confirm successful modification of the protein, which yielded a single species of approximately 17204 Da (C2Am-AlxAF647). ESI mass spectrometry of Annexin V-Alexa Fluor647™ was also performed. Briefly, samples were desalted using Millipore mC18 Ziptips and eluted with 50% MeCN/0.2% formic acid. Samples were analyzed by direct infusion at a flow rate of […] into a Waters QtofMicro, using 70% MeOH/0.2% formic acid as the mobile phase. Typical settings: capillary 3000V, cone 90V, capillary temperature 80° C., desolvation temperature 150° C., calibration by myoglobin and/or trypsinogen collected later in the same file. Deconvolution was conducted using Waters MassLynx MaxEnt 1 software (Waters Ltd, Manchester, UK). […]

Experiment [2] has as its target T2, Rattus norvegicus synaptotagmin I C2A domain, wild type (Rattus norvegicus, UniProt P21707).
T2 construct: GST (N); made in house; host or cells: E. coli BL21
To be noted: FIG. 8; thermal equilibrium SPR data, 1:1 Langmuir binding model, protein 5-95 nM, 37° C., 2 mM CaCl2, pH 7.4; read-out: dissociation constant (KD). The procedure:
(§3) Large multilamellar vesicles (LMVs) were prepared using three types of phospholipids (Phosphatidylserine, PS; Phosphatidylethanolamine, PE and Phosphatidylcholine, PC, Avanti Polar Lipids, Alabaster, Ala., USA). A sample of 2.6 μmol of phospholipids (PS:PE:PC mixture in chloroform; molar ratio 35:50:15) was dried under a gentle stream of nitrogen for half an hour and resuspended in 2.6 mL of C2A binding buffer (HBS=20 mM HEPES, 150 mM NaCl, pH 7.4, containing 2 mM CaCl2), by vigorous vortex mixing.
Surface Plasmon Resonance (SPR) analysis was performed on L1 sensor chips using a Biacore T100 system (Biacore, GE Healthcare). […]
Each protein solution was prepared automatically by the system at varying concentrations from 0 to 100 nM or from 5 nM to 75 nM using automated mix fraction preparation, and all injections were conducted in duplicate in C2A binding buffer at a flow rate of 30 μL min^−1 and 37° C. All concentrations were analyzed in duplicate. Protein affinity for PS was evaluated by estimating the thermal equilibrium affinity dissociation constants (KD), obtained from the response values 4 s before the end of the association phase of the corresponding interaction sensorgrams (FIG. 8). […]

In experiment [3] the target is T3, Rattus norvegicus synaptotagmin I C2A domain variant C2Am, S78C (S217C of full-length synaptotagmin I), SEQ ID NO: 1 (Rattus norvegicus, UniProt P21707, S217C).
T3 construct: GST (N, cleaved yes); linker between GST and C2A (part after the thrombin site) (N); made in house; host or cells: E. coli BL21
The following applies: 37° C., 2 mM CaCl2, pH 7.4.
Text: as §1, §2, §3
Surface Plasmon Resonance (SPR) analysis was performed on L1 sensor chips using a Biacore T100 system (Biacore, GE Healthcare).
In some experiments, the chip flow cells were washed with a 2-min pulse of a mixture of isopropanol/NaOH 50 mM (2:3 volume) at 5 μL, min^−1, and one coated with 5 μL of a suspension of SMVs containing 1 mM of phospholipids (at 1 μL min^−1), generating an average relative response of ca. 2,000 RU (relative units). Unbound multilamellar material was removed from the chip after SMV injection, by applying three 20s regeneration pulses of sodium hydroxide (50 mM, at 20 μL min^−1).
In other experiments, the chip flow cells were washed with two, 30 s pulses of 20 mM, 3-[(3Cholamidopropyl)dimethylammonio]-1-propanesulfonate (CHAPS, at 30 μL min−1), then one flow cell (test) was coated with a suspension of test SMVs (PS:PE:PC) containing 1 mM of phospholipids (at 5 μL min−1), until an average relative response of ca. 5000 RU (relative units) was reached. Unbound multilamellar material was removed from the lipid bilayer after SMV injection, by applying two, 30 s pulses of sodium hydroxide (50 mM, at 30 μL min−1).
Another flow cell was left uncoated as a control path. In some experiments, another flow cell (control) was coated with a suspension of control SMVs (PE:PC) containing 1 mM of phospholipids (at 5 μL min−1), until an average relative response of ca. 5000 RU (relative units). Control SMVs were prepared using PE and PC (molar ratio 77:23), and unbound material removed as above
After a stable baseline had been achieved, the proteins were allowed to interact sequentially with the chip surface of the two flow cells of interest, for 2 min (association phase) and 1 min (dissociation phase) at 30 μL min^−1 or for 60 s (association phase) at 40 μL min^−1 at 37° C. The phospholipid bilayer was regenerated using a 15 s or 20 s pulse of HBS containing 10 mM NaEDTA, or (HBS, 20 mm EDTA, pH 7.4) at 40 μL min^−1, after each individual injection.
Each protein solution was prepared automatically by the system at varying concentrations from 0 to 100 nM or from 5 nM to 75 nM using automated mix fraction preparation, and all injections were conducted in duplicate in C2A binding buffer at a flow rate of 30 μL min^−1 and 37° C. All concentrations were analyzed in duplicate. […]

The mark [4] stands for this setting: kinetic analysis of SPR data, read-out: KD (kinetics).

T1 sequence (P21707 140-267 S217C): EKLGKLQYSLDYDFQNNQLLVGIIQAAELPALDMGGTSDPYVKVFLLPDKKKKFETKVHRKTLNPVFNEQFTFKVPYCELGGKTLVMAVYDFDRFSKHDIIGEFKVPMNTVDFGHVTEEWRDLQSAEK
T3 sequence (P21707 140-267 S217C): as above
T2 sequence (P21707 141-260 limits assumed): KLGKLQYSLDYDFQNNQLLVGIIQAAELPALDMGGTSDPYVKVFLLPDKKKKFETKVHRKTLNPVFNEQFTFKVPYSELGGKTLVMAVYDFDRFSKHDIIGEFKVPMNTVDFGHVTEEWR

In the case of Phosphatidylserine, the Kd in experiment [1] (affinity analysis of SPR data, read-out: KD (affinity)) was 71 ± 6.9 nM; in experiment [1] (setting [4]), 87.9 nM; in experiment [2] it was 48.5 ± 3.5 nM; in experiment [3] (FIG. 8, thermal equilibrium SPR data, 1:1 Langmuir binding model, protein 5-95 nM, read-out: dissociation constant (KD)), 49.4 ± 4.9 nM; in experiment [3] (affinity analysis of SPR data, duplicate injections, listed as PS, read-out: KD (affinity)), 55.4 ± 3.5 nM; in experiment [3] (affinity analysis of SPR data, duplicate injections, read-out: KD (affinity)) it was ~55 nM and 55.4 nM. The Kd in experiment [3] (setting [4]) came to 54.2 nM. Besides, the “ka (kinetics)” value was 2.14e+06 M⁻¹ s⁻¹ in experiment [1] (kinetic analysis of SPR data) and 2.01e+06 M⁻¹ s⁻¹ in experiment [3] (kinetic analysis of SPR data). In addition, the “kd (kinetics)” value stood at 0.188 s⁻¹ in experiment [1] (kinetic analysis of SPR data) and 0.110 s⁻¹ in experiment [3] (kinetic analysis of SPR data).

As usually defined, the Kd is the constant that tells how readily two partners part at equilibrium.
